Assay results from patent publication US20230366023A1, “METHODS AND COMPOSITIONS FOR BIOLUMINESCENCE-BASED SEQUENCING” (BGI Shenzhen Co., Ltd., priority 2020, published 2023).
Entries after “also recorded” stand apart in the source; their conditions may differ.

Assays:
Gluc [1] = assay: Selective deactivation by DTT (FIG. 18B); format: biochemical, Gaussia princeps
Procedure: (§1) Selective deactivation agents that are suitable for the invention include, but not limited to, Dithiothreitol (DTT), beta-mercaptoethylamine, tris-carboxyethylphosphine (TCEP). The suitable concentrations of the agent (e.g., DTT) for selectively deactivating the first luciferease may range from 0.001M to 2M, e.g., from 0.01M to 0.5M, from 0.05M to 1M, 0.07M to 0.5M, or about 0.1M.
In each cycle a mixture of NLRTs were incubated with the DNA template to be sequenced in the presence of a DNA polymerase. These NLRTs include 7-deaza-7-biotin-linker-3′-azidomethyl-dATP, 5-biotin-linker-3′-azidomethyl-dTTP, 5-digoxin-linker-3′-azidomethyl-dTTP, 5-digoxin-linker-3′-azidomethyl-dCTP, and 3′-azidomethyl-dGTP. Streptavidin-conjugated Gluc (recognizing biotin-labeled nucleotides A and T) was added to the sequencing flow cell followed by adding substrate CTZ. Bioluminesnce signals from the cleavage of CTZ by the Gluc was collected. […] Subsequently, Nluc-conjugated anti-Digoxin antibody was added to the flow cell to bind the Digoxin-labeled nucleotides (T and C). No signals for G were detected as expected.

Nluc [2] = biological target: T1, Nluc (Oplophorus gracilirostris, UniProt Q9GV45, A31E/A60N/A81I/F95D/I117V/K70R/L54V/L99Q/M102K/N193R/P142E/Q151K/Q38R/Q45L/V71I/Y165I); assay: Selective deactivation by DTT (FIG. 18A); format: biochemical
T1 construct: purchased Prolume Inc
Text: as §1

[3] = Long-term shelf life of substrates in reaction buffer (FIG. 6); format: physicochemical; conditions: 300 uM in reaction buffer, −20° C.
Procedure: Long-term shelf life (long-term stability) was also evaluated for the substrate reaction buffer formulation. 300 uM substrate was diluted in the reaction buffer and stored at −20° C. One aliquot was thaw and tested against the fresh luciferase. Data at each time point was the relative signal intensity ratio compared to a fresh luciferase/substrate pair.

[4] = On-board stability of substrates in reaction buffer (FIG. 5); format: physicochemical; conditions: room temperature 24 hours in reaction buffer, compared with fresh condition
Procedure: The term “on-board stability” refers to the stability of […] in reaction buffer under the room temperature for 24 hours.
To develop the substrate reaction buffer into a robust reagent kit for the bioluminescence-based sequencing platform, both on-board stability and long term shelf life have been evaluated. […] We evaluated the room temperature stability for 24 hours (referred as on-board stability) for both CTZ and f-CTZ in the reaction buffer formulation listed above.

Solubility of substrates = format: physicochemical
Procedure: An optimal organic solvent as substrate stock buffer was needed to obtain good solubility and good stability. Different organic solvents and mixes were tested, such as ethanol, propylene glycol, methonal, DMSO, and mixes of these solvents at different ratios.

Gluc [5] = assay: Luciferase signal after incubation with SMCC linker or iodoacetamide (FIG. 10B); format: biochemical, Gaussia princeps
Procedure: (§2) We investigated the detailed luciferase structures to find the reason for the signal drop. […] To confirm this hypothesis, lodoacetamide was used to incubate with both Gluc and Nluc. Lodoacetamide can bind covalently to the thiol group of cysteine so the protein cannot form disulfide bonds, as illustrated in FIG. 10A. […] This was the reason why there is signal loss after incubating the SMCC with Nluc/Gluc which leads to low signal intensity for the final antibody conjugates.

Nluc [6] = biological target: T1, Nluc; assay: Signal and thermostability after Traut's modification (FIG. 11C, 11D); format: biochemical
Text: (§3) Other conjugation methods were also attempted to avoid the side reactions from SMCC. […] After purification of each reaction, the luciferase after Traut's treatment and the antibody after SMCC treatment were mixed together to react through the —SH group on the luciferase and maleimide on the SMCC group on antibody.
Beside signal evaluation, stability study had also been investigated. […]

Gluc [7] = assay: as above; format: biochemical, Gaussia princeps
Procedure: as §3
Beside signal evaluation, stability study had also been investigated. […] For Nluc, Traut's modification (1:1 ratio) helps to improve stability and signal for about 30% at 50° C.

Nluc mutant = biological target: T2, Nluc mutant (Oplophorus gracilirostris, UniProt Q9GV45, A31E/A60N/A81I/F95D/I117V/K70R/L54V/L99Q/M102K/N193R/P142E/Q151K/Q38R/Q45L/V71I/Y165I); assay: Screening of CTZ analogs as substrate (FIG. 4); format: biochemical; conditions: with Nluc mutant
T2 construct: purchased Prolume Inc

Nluc [8] = biological target: T1, Nluc; assay: Luciferase signal after incubation with SMCC linker or iodoacetamide (FIG. 10B); format: biochemical; conditions: Nluc:iodoacetamide 1:10 ratio at RT for 30 min
Procedure: as §2

[9] = relative; each luciferase with the substrate listed in Table 1
Text: Preferably the luciferase is relatively small (e.g., less than 30 KDa) so that they can be readily engineered, e.g., be coupled to or fused to an affinity reagent disclosed herein. […] Other non-limiting examples of luciferases that can be used include Nanoluc (Promega) and NanoKaz (NanoLight Technology), which also comprise a sequence of SEQ ID NO: 2.

[10] = Stability of luciferases in cells (Table 1); format: cell-based
[11] = Cross-substrate reactivity of Nluc with the Gluc substrate (FIG. 3); format: biochemical
Procedure: In some embodiments, the luciferase is incubated with the substrate for a sufficient amount of time to allow the development of the signal before detection. The step of signal development may last between 5 to 30 minutes, for example, about 10 minutes.

[12] = Side-by-side signal intensity comparison of commercial luciferases (FIG. 2); format: biochemical; conditions: integrated signal intensity from the first 10 sec
Text: However, it was still multiple fold intensity higher than the rest of the counterparts. […] The integrated signal intensity from the first 10 sec was obtained from each luciferase/substrate pair to have the comparison.

## O[C@H](CS)[C@H](O)CS (racemic) [DTT, Dithiothreitol]
Gluc [1]; 100 mM DTT
  deactivation in sequencing flow cell: deactivated Gluc
Gluc [1]; Gluc
  signal reduction after DTT treatment: more than 95%
Nluc [2]
  signal change after DTT treatment: did not impair the activity; also recorded: no significant changes

## Oc1ccc(Cc2nc3c(Cc4ccccc4)nc(-c4ccc(O)cc4)cn3c2O)cc1 [CTZ, coeleterazine]
[3]; Gluc/CTZ, 6 months
  long-term stability (relative signal intensity versus fresh luciferase/substrate pair): no significant signal drop
[4]
  on-board stability: no significant difference; also recorded: not significantly different
Solubility of substrates
  water solubility: not water-soluble

## O=C(ON1C(=O)CCC1=O)C1CCC(CN2C(=O)C=CC2=O)CC1 (stereo not shown) [SMCC]
Gluc [5]; Gluc
  signal drop after incubating with SMCC linker: 15%-30%

## N=C1CCCS1 [Traut's reagent, 2-iminothiolane]
Nluc [6]; Nluc modified or unmodified, 70° C. for 1 hour
  thermostability after Traut's modification: cannot survive 70 °C
Nluc [6]; Nluc, 1:1 molar ratio gives the highest signal
  signal increase after Traut's modification (in words): doubled
Gluc [7]; 1:1 molar ratio gives the highest signal
  signal increase after Traut's modification: 60%
Gluc [7]; 50° C. or 70° C. for 1 hour
  thermostability after Traut's modification: worse stability

## O=c1c(Cc2ccc(F)cc2)nc2c(Cc3ccccc3)[nH]c(-c3ccc(O)cc3)cn1-2 [f-CTZ, fluorinated coeleterazine]
[3]; Nluc/f-CTZ, 4 months
  long-term stability (relative signal intensity versus fresh luciferase/substrate pair): no significant signal drop
[4]
  on-board stability: no significant difference; also recorded: not significantly different
Solubility of substrates
  water solubility: not water-soluble
Nluc mutant
  signal intensity among the different CTZ analog structures: optimal substrate; also recorded: highest signal intensity

## NC(=O)CI [lodoacetamide, Iodoacetamide]
Gluc [5]; Gluc:iodoacetamide 1:10 ratio at RT for 30 min, fraction of signal
  signal lost after reacting with iodoacetamide: 2/3
Nluc [8]
  signal lost after reacting with iodoacetamide: lost all signal

## firefly: firefly luciferase, substrate D-Luciferin
[9]
  Signal intensity: 1
[10]
  Stability in cells: 0.00694 days

B1: Nluc: NanoZac luciferase polypeptide (SEQ ID NO: 2), Prolume Inc. (protein)
chain: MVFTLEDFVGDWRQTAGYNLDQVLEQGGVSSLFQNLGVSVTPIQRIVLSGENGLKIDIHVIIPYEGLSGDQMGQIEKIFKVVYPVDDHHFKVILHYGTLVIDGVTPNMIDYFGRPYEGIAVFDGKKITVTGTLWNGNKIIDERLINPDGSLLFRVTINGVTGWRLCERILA
[11]; Nluc with CTZ
  background signal when reacting with the Gluc substrate: about 10%
[11]; in words, FIG. 3
  cross-substrate reactivity: no significant cross-substrate reactivity
[12]
  signal compared to the Gluc mutant: half

B2: NanoKaz: NanoKaz luciferase (NanoLight Technology), substrate Coelenterazine-F (protein)
chain: B1 chain
[9]
  Signal intensity: 150
[10]
  Stability in cells: 7.7 days

B3: Nanoluc: Nanoluc luciferase (Promega), substrate Furimazine (protein)
chain: B1 chain
[9]
  Signal intensity: 80
[10]
  Stability in cells: 7.7 days

B4: Gaussia: Gaussia luciferase (GLuc), substrate Coelenterazine (protein)
chain: MKPTENNEDFNIVAVASNFATTDLDADRGKLPGKKLPLEVLKELEANARKAGCTRGCLICLSHIKCTPKMKKFIPGRCHTYEGDKESAQGGIGEAIVDIPEIPGFKDLEPLEQFIAQVDLCVDCTTGCLKGLANVQCSDLLKKWLPQRCATFASKIQGQVDKIKGAGGDHHHHHH
[9]
  Signal intensity: 160
[10]
  Stability in cells: 10.5 days
